Article PMC6167311, “Structure of the NDH-2 – HQNO inhibited complex provides molecular insight into quinone-binding site inhibitors” (Biochimica et Biophysica Acta, 2018)

Legend:
Format in all cases: biochemical
[1] = biological target: T1, NDH-2 (type II NADH:quinone oxidoreductase) (Caldalkalibacillus thermarum, UniProt F5L3B8); experiment: NADH:menadione oxidoreduction turnover of purified enzyme ([…] s^−[…] at […] MD)
T1 construct: gene CathTA2_0279

[2] = biological target: T1, NDH-2 (type II NADH:quinone oxidoreductase); experiment: co-crystal structure at […] Å; IC50 in NADH:menadione oxidoreduction assay ([…] menadione) with purified enzyme
[3] = biological target: T2, NDH-2 (type II NADH:quinone oxidoreductase) (Caldalkalibacillus thermarum, UniProt F5L3B8, I379E); experiment: NADH:menadione oxidoreduction assay, […] menadione, […] NADH
T2 construct: gene CathTA2_0279
T2 sequence (F5L3B8 entry or part of it I379E): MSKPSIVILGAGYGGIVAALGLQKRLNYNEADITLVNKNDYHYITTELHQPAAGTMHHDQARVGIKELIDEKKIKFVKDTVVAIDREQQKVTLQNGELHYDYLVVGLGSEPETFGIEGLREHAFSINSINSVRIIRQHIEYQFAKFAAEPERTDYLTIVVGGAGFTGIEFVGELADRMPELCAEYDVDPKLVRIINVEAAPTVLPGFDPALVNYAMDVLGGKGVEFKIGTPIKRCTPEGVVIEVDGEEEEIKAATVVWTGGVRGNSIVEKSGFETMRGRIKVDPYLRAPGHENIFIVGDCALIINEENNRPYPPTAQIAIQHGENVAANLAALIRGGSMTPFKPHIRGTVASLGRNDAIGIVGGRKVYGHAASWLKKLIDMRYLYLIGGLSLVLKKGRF

T1 sequence (F5L3B8 entry or part of it): as the sequence (F5L3B8 entry or part of it I379E) above

Structure (SMILES)	NADH:menadione oxidoreduction turnover of purified enzyme (959.3 s^-1 at 400 μM) [1] [s⁻¹]	IC50 [2] [µM]	IC50 [3] [µM]
CC1=CC(=O)c2ccccc2C1=O [menadione]	959.3	–	–
CCCCCCCc1cc(O)c2ccccc2[n+]1[O-] [compound 1, 2-heptyl-4-hydroxyquinoline-N-oxide]	–	7.3 ± 1.2	54.3 ± 1.2
